Patent US12630555B2, “Substituted pyrrolo[1,2-a]quinoxalin-4(5H)-ones as CX3CR1 antagonists” (Drexel University, priority 2017, dated 2026)
Several values for one entry are separate records, joined by “and”; a condition that tells them apart may be missing. Equal entries are not always repeated. Where two headings read alike, the source gives them in different places.

Assays:
disseminated tumors [1] = assay: Additional metastatic lesions after AMD-3100 mobilization; assay type: in vivo, mice
Protocol: Complementary studies were conducted in mice harboring experimental metastases as detected at one week post-grafting, and left either untreated or treated at the second and third week with AMD-3100, alone or in combination with Compound XXII (FIG. 10B). All lesions identified at the fifth week that had not been previously detected at the second week of the experiment were counted and compared among treatment groups.

MDA-231 cells [2] = assay: Enumeration of CTCs in blood of tumor-bearing mice after mobilization with AMD-3100; assay type: in vivo; details: for mobilization of cancer cells (CTCs) into the blood: compound alone, tumor-bearing mice
Protocol: Blood was withdrawn by cardiac puncture. AMD-3100 was purchased from Selleckchem (S8030) dissolved in PBS at 1 mg/ml and at −20° C. before use. Tumor-bearing animals were anesthetized as described above and 200-250 μl of systemic blood was collected at the designated time points and transferred in K2EDTA tubes. Blood samples were placed on ice, diluted using a saline buffer (0.5% BSA, 2% EDTA in PBS) at a 1:8 ratio and then filtered through a 70 μm cell strainer immediately prior to achieve a label-free, microfluidic isolation of CTCs. For enumeration, the Captor® system (Clearbridge Biomedics, Singapore) was used, which allows visualization of individual CTCs trapped into crescent-shape microwells. Following complete flowing of the diluted blood, the CTChip® was transferred to the stage of an inverted fluorescent microscope and all trapped CTCs were counted. For the recovery of fully viable CTCs we used the ClearCell® FX system (Clearbridge Biomedics, Singapore), which employs the CTChip® FR1 to isolate cancer cells from blood cells based on size, deformability and inertia through a Dean Flow Fractionation process.
CTCs were lysed on the same microfluidic chip used for capture using an ice-cooled RNA lysis buffer (Norgen Bioteck Corp.). […] Genespecific primers and probe sets were purchased from Applied Biosystem.
Cancer cells in the blood are a dynamic pool that constantly fluctuates as cells enter circulation upon being dislodged from tumors, reseed additional sites or perish to anoikis if they fail to do so. This makes determining the time spent by cancer cells in the blood problematic. A major hurdle for these types of studies is the limited ability to monitor the timing of CTCs' entry into and egress from the blood during steady-state conditions. To circumvent these issues, cancer cells were acutely mobilized from tumors in the skeleton and soft-tissues in mice—above steady-state counts—and then thereafter the blood was sampled at specific intervals, reasoning that a time-dependent decline of the number of CTCs in the blood would result from cancer cells seeding back to tissues and dying in circulation. […] When spreading via the systemic circulation, cancer cells become susceptible to anoikis and extending the time spent in the blood increases the odds of incurring this form of apoptotic cell death.

[3] = tested on: MDA-231 human breast cancer cells; assay: Model of tumor seeding: MDA-231 cells inoculated intracardially, DTCs in skeleton at 24 hours; details: for seeding of the skeleton by MDA-231 breast cancer cells: SCID mice, i.p. one hour before and 3 hours after inoculation (Compound XXII 10 mg/kg); for reduction in DTCs vs vehicle: 24 hours
Protocol: Female SCID mice (Taconic CB17-SCRF, ˜20 g body weight) were housed in a germfree barrier. At 6 weeks of age, mice were anesthetized with a mixture of ketamine (80 mg/kg) and xylazine (10 mg/kg). […] After intracardiac injection, the experimenter distributed each animal in unlabeled cages. Each cage was randomly assigned to different treatment groups by a second experimenter.
The dosing regimen was selected based on results from pharmacokinetic analyses. […] For the detection and enumeration of single cancer cells, the experimenter was not blinded but was assisted by the Nuance FX multiplex imaging software (see below). A fluorescence image was acquired for each tissue section analyzed, approximately 36 serial sections spanning the entire width of each knee-joint. The identification and enumeration of single cells was obtained by three different experimenters, including the Principal Investigator, and occasional discrepancies reconciled prior to compiling the final data.
Animal model of tumor seeding: SCID mice (Taconic CB17-SCRF, ˜25 g body weight) were housed in a germ-free barrier. At 6 weeks of age, mice were anesthetized with a mixture of ketamine (80 mg/kg) and xylazine (10 mg/kg). Tumor cells were delivered as a 100 μl suspension of serum-free culture medium by carefully accessing the left ventricle of the heart through the chest with an insulin syringe mounting a 30-gauge needle. […] Species- and class-matched irrelevant immunoglobulins (Rabbit IgG, 15 μg/ml, Jackson ImmunoResearch) or DMSO were used for the control groups. […] The dosing regimen was selected based on results from pharmacokinetic analyses. […] Blue-fluorescent beads, 10 μm-polystyrene in diameter (Invitrogen-Molecular Probes) were included in the injection medium and visualized by fluorescence microscopy to validate injection efficiency. Mice showing non-homogenous distribution of or lacking fluorescent beads in tissue sections of lungs and kidneys were removed from the study.
Soft-tissue organs were then placed either in 30% sucrose for cryoprotection or 1% paraformaldehyde for long-term storage. Bones were decalcified in 0.5M EDTA (Fisher Scientific) for 7 days followed by incubation in 30% sucrose. Tissues were maintained at 4° C. for all aforementioned steps and frozen in O.C.T. medium (Sakura Finetek) by placement over dry-ice chilled 2-methylbutane. Soft-tissue organs as well as knee joints (femora and tibiae) were processed to obtain serial frozen sections, 80 μm in thickness, using a Microm HM550 cryostat.
Fluorescent images of skeletal metastases were acquired using an Axio Scope.A1 microscope (Zeiss) connected to a Nuance Multispectral Imaging System (PerkinElmer). Digital images were analyzed and processed using the Nuance Software (v. 2.4). […]

MDA-231 cells [4] = assay: Model of metastatic disease: one-week MDA-231 tumors, bioluminescence imaging; assay type: in vivo, mice
Protocol: (§1) One week after intracardiac injection, animals were randomly assigned to control and treated group and then imaged for tumors in the skeleton and soft-tissue organs. Vehicle or Compound XXII (10 mg/kg) were administered i.p. twice/day, for the entire duration of the study and animals were imaged weekly. Doxorubicin was purchased from LEK Laboratories (D5794), dissolved in PBS at 1 mg/ml and stored at −20° C. before use. All experiments were performed in agreement with NIH guidelines for the humane use of animals. The Drexel University College of Medicine Committee approved all protocols involving the use of animals for the Use and Care of Animals.
MDA-231 cells were stably transduced with the pLeGo-IG2-Luc2 vector. Prior to imaging, animals were injected i.p. with 150 mg/kg of D-luciferin (ViVoGlo, Promega) and anesthetized using 3% isoflurane. Animals were then transferred to the chamber of an IVIS Lumina XR (PerkinElmer) where they received 2% isoflurane throughout the image acquisition. Fifteen minutes after injection of the substrate, five-minute exposures of both dorsal and ventral views were obtained and quantification and analysis of bioluminescence was performed using the Living Image software.
To determine whether the pharmacologic targeting of CX3CR1 with Compound I would produce similar effects, mice were grafted with MDA-231 cells and at the first week post-IC injection were randomized and administered with either vehicle or 10 mg/Kg Compound I i.p. twice daily for three weeks, based on pharmacokinetics studies with this compound. Animals were imaged weekly before being euthanized, and treatment with Compound I led to a reduction in the number of tumor foci and overall tumor burden, at least as effectively as observed using CRISPRi (FIGS. 5A-5B).

in vivo = details: mouse, ip, 10 mg/kg
Protocol: (§2) Animals were then anesthetized as described above and 300 μl of blood samples were collected by cardiac puncture at the designated time points and transferred in K2EDTA tubes. Blood samples were placed on ice and tested after dilution.

[5] = Pharmacokinetic studies in mice, 10 mg/kg i.p.; details: 1 hour, vs 10 nM
Protocol: as §2

disseminated tumors [6] = assay type: in vivo
Protocol: as §1
Mice harboring 1-week disseminated tumors were treated with the anthracycline antibiotic Doxorubicin (5 mg/Kg, i.p., q.w.), alone or in combination with Compound XXII (10 mg/Kg, i.p., b.i.d.) for the entire duration of the study. […] When the effects on both number of tumors and tumor burden were examined. […] It could be argued that this lack of effect shown by the chemotherapeutic drug was likely attributable to the short length of treatment, shorter than common protocols used in oncology practice. […] The acute toxicity of Doxorubicin precluded longer experiments. In order to test whether retaining cancer cells in the blood circulation by targeting CX3CR1 could extend their exposure to chemotherapeutics, the fluorescent properties of Doxorubicin were utilized and the red-spectrum emitted fluorescence of CTCs was collected at steady state from mice harboring disseminated tumors which were treated with Doxorubicin (alone, one hour after or three hours prior to administration of Compound XXII). CTCs were collected—independently of the type of treatment—four hours after Doxorubicin administration.

MDA-231 cells [7] = assay: Reseeding of CTCs to bone and lungs (GFP/CM-Dil double-labeled cells); assay type: in vivo, mice; details: AMD-3100 with Compound XXII 10 mg/Kg i.p. 1 hr prior and 3 hrs after; 12 or 24 hours
Protocol: The CellTracker™ CM-Dil (ThermoFisher Scientific) was diluted as 50 μg in 50 μl of DMSO to prepare a stock solution. Immediately before use, the stock solution was diluted with D-PBS to a 1 μM working solution. Cells were exposed to the working solution at 37° C. for 5 minutes and then at 4° C. for 15 minutes and then washed with PBS followed by F-12 cell culture medium.
Green-fluorescent MDA-231 cells were labeled with the cell-tracker CM-Dil, a widely validated red-fluorescent dye that, while being stably retained by non-dividing cells, is transferred to daughter cells upon mitosis and eventually becomes too diluted and undetectable in rapidly dividing cell populations. Based on these features, GFP/CM-Dil double-labeled cancer cells, when reseeding from established tumors would emit green fluorescence but lack red fluorescence, as the results of high proliferation during tumor growth and consequential dilution of the CM-Dil dye. Cancer cells that became dormant upon seeding different tissues following intracardiac injection would retain the CM-Dil dye, thereby emitting signals in both green and red fluorescent spectra (FIG. 9A). For these experiments, mice were grafted with double-labeled cancer cells in the left cardiac ventricle and allowed to develop tumors for two weeks. […]

[8] = tested on: 4T-1 murine breast cancer cells; assay: Model of tumor seeding: 4T-1 cells inoculated intracardially in Balb-C mice; assay type: in vivo; details: 10 mg/kg i.p. one hour before and 3 hours after inoculation
Protocol: Mice were sacrificed 24 hours post-injection.

disseminated tumors [9] = assay: Docetaxel alone or with Compound XXII in animals bearing disseminated tumors; assay type: in vivo
Protocol: Animals bearing disseminated tumors were treated with Docetaxel (2 mg/Kg, i.p., bis in 7 d.) either alone or in combination with Compound XXII (10 mg/Kg i.p., q12h) and compared to Compound XXII alone (FIGS. 11E-11G).

[10] = single dose 5 mg/kg, mice with 3-week tumors
[11] = 10 mg/kg i.p. twice/day from one week post-inoculation, vs vehicle
[12] = Doxorubicin 5 mg/Kg q.w. in combination with Compound XXII 10 mg/Kg i.p. b.i.d.
[13] = Doxorubicin alone 5 mg/Kg i.p. q.w., two weeks

In the case of c1cc(CN2CCCNCCNCCCNCC2)ccc1CN1CCCNCCNCCCNCC1 [AMD-3100, reference compound], the “number of additional lesions vs untreated animals” value (disseminated tumors [1]; AMD-3100 alone at second and third week, lesions at fifth week) was “doubled number of additional lesions”, the “area under the curve of CTC counts vs time” value (MDA-231 cells [2]; AMD-3100 alone) was 345 and the “mobilization of cancer cells (CTCs) into the blood” value (MDA-231 cells [2]) was “rapid increase in the number of CTCs”. The “time of peak number of CTCs post-treatment” value (MDA-231 cells [2]; [10]) was 3 h, the “time of return of CTCs to steady-state counts” value (MDA-231 cells [2]; [10]) was 48 h and the “seeding of the skeleton by MDA-231 breast cancer cells” value [3] was “unaffected”.

In the case of O=c1c2cccn2c2ccccc2n1CCCN1CCC(c2ccc(Cl)cc2)CC1 [Compound I, 5-(3-(4-(4-chlorophenyl)piperidin-1-yl)propyl)pyrrolo[1,2-a]quinoxalin-4(5H)-one], the “number of tumors (tumor foci)” value (MDA-231 cells [4]; [11]) was “reduction”, the overall tumor burden (MDA-231 cells [4]; [11]) was “reduction” and the concentration at 1 h (in vivo; in vivo) was 89 ng/mL and 210 nM. For the same compound, the “increase of blood level over lowest fully effective dose in vitro” value [5] was 20 fold, the “reduction in DTCs vs vehicle” value ([3]; 10 mg/Kg i.p. twice, one hour prior and three hours after IC inoculation) was “approximately 60%” and the “reduction in DTCs vs vehicle” value ([3]; MDA-231 cells pre-incubated with 10 nM compound) was “approximately 60%”.

In the case of O=C1CN(CCCn2c(=O)c3cccn3c3ccccc32)CCN1c1ccc(Cl)cc1 [Compound XXII, 5-(3-(4-(4-chlorophenyl)-3-oxopiperazin-1-yl)propyl)pyrrolo[1,2-a]quinoxalin-4(5H)-one], the “number of CTCs positive for intracellular Doxorubicin” value (disseminated tumors [6]; Compound XXII administered prior to Doxorubicin, CTCs collected four hours after Doxorubicin) was “significant increase”, the “anti-tumor effect compared with Doxorubicin” value (disseminated tumors [6]; Compound XXII alone 10 mg/Kg i.p. b.i.d., short period of time) was “superior anti-tumor effect than Doxorubicin” and the “containment of tumor numbers” value (disseminated tumors [6]; [12]) was “comparable to Compound XXII alone”. For the same compound, the “mitigation of tumor burden” value (disseminated tumors [6]; [12]) was “comparable to Compound XXII alone”, the “synergistic effects of combination” value (disseminated tumors [6]; Doxorubicin combined with Compound XXII) was “Synergistic effects were minimal” and the “tumor burden after one week of treatment vs Compound XXII alone” value (disseminated tumors [6]; Doxorubicin in combination with Compound XXII, 1 week) was “significantly superior effect”. For the same compound, the “overall tumor burden, % of the levels in the control group” value (MDA-231 cells [4]; 10 mg/kg i.p. twice/day from one week post-inoculation) was “below 50%”, the “number of tumors (tumor foci)” value (MDA-231 cells [4]; [11]) was “strongly reduced” and the overall tumor burden (MDA-231 cells [4]; [11]) was “strongly reduced”. The overall survival (MDA-231 cells [4]; 10 mg/kg i.p. twice/day, Kaplan-Meier, vs vehicle) was “increase in overall survival”, the “AMD-3100-induced increase of additional lesions” value (disseminated tumors [1]; AMD-3100 in combination with Compound XXII) was “ablated” and the “number of reseeded cancer cells in lung and knee-joints” value (MDA-231 cells [7]) was “dramatically reduced”. For the same compound, the “area under the curve of CTC counts vs time” value (MDA-231 cells [2]; AMD-3100 combined with Compound XXII, then Compound XXII alone twice/day) was 731, the “percentage of apoptotic CTCs (Bax/Bcl-2 ratio) vs AMD-3100 alone” value (MDA-231 cells [2]; AMD-3100 in combination with Compound XXII, CTCs collected at 12 and 24 hours) was “increased the percentage of apoptotic CTCs” and the “magnitude of increase in CTC counts vs AMD-3100 alone” value (MDA-231 cells [2]; Compound XXII co-administered with AMD-3100) was “more than two-fold higher”. For the same compound, the “mobilization of cancer cells (CTCs) into the blood” value (MDA-231 cells [2]) was “does not mobilize cancer cells back in the blood”, the concentration at 1 h (in vivo; plasma) was ~200 ng/mL and the concentration at 6 h (in vivo; plasma) was 60 ng/mL. The “seeding of the skeleton by 4T-1 breast cancer cells” value [8] was “severely impaired”, the “overall efficacy for lowering total tumor burden” value (disseminated tumors [9]; Compound XXII alone 10 mg/Kg i.p. q12h, each time point) was “comparable to the current standard of care, docetaxel alone” and the “synergistic effects of combination” value (disseminated tumors [9]; Docetaxel with Compound XXII, especially after 11 days of treatment) was “Synergistic effects were observed”. For the same compound, the “seeding of the skeleton by MDA-231 breast cancer cells” value [3] was “severely impaired”.

With COc1cccc2c1C(=O)c1c(O)c3c(c(O)c1C2=O)C[C@@](O)(C(=O)CO)C[C@@H]3O[C@H]1C[C@H](N)[C@H](O)[C@H](C)O1 [Doxorubicin, reference compound] the “number of tumors vs control” value (disseminated tumors [6]; [13]) was “failed to show any significant effect” and the “tumor burden vs control” value (disseminated tumors [6]; [13]) was “failed to show any significant effect”.

With CC(=O)O[C@@]12CO[C@@H]1C[C@H](O)[C@@]1(C)C(=O)[C@H](O)C3=C(C)[C@@H](OC(=O)[C@H](O)[C@@H](NC(=O)OC(C)(C)C)c4ccccc4)C[C@@](O)([C@@H](OC(=O)c4ccccc4)[C@H]21)C3(C)C [docetaxel, reference compound] the tumor growth (disseminated tumors [9]; docetaxel alone 2 mg/Kg i.p. bis in 7 d.) was “significantly suppressed tumor growth”.
